According to ChEMBL document CHEMBL1122266, “Ring-substituted 1,2-dialkylated 1,2-bis(hydroxyphenyl)ethanes. 1. Synthesis and estrogen receptor binding affinity of 2,2'- and 3,3'-disubstituted hexestrols” (J Med Chem, 1983):
“And” between values parts separate entries of the source, which are not always exact repeats. Equal entries are not always repeated.

Columns and labels:
[1] = target: Estrogen receptor (Bos taurus) (UniProt Q9XSB5+P49884); test: Relative binding affinity for calf uterine estrogen receptor by 17-beta-[3H]-estradiol competition.; format: protein assay
[2] = target: T1, Estrogen receptor (Mus musculus) (UniProt O08537+P19785); test: Estrogenic activity in uterotrophic assay in mice at 100 ug/day; format: functional
T1 sequence (O08537 whole entry, looked up): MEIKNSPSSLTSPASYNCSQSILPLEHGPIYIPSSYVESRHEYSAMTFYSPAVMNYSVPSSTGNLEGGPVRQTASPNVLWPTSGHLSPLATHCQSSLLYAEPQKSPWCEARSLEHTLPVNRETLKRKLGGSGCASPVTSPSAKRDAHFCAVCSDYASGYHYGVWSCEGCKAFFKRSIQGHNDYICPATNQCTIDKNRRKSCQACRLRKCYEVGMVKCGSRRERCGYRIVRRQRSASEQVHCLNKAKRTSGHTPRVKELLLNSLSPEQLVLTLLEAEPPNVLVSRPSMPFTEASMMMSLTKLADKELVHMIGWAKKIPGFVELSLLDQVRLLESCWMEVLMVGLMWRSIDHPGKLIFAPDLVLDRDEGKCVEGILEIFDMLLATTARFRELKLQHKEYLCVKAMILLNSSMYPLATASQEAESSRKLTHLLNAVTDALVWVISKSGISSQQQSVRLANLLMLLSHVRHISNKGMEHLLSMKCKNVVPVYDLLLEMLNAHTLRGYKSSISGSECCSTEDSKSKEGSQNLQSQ
T1 sequence (P19785 whole entry, looked up): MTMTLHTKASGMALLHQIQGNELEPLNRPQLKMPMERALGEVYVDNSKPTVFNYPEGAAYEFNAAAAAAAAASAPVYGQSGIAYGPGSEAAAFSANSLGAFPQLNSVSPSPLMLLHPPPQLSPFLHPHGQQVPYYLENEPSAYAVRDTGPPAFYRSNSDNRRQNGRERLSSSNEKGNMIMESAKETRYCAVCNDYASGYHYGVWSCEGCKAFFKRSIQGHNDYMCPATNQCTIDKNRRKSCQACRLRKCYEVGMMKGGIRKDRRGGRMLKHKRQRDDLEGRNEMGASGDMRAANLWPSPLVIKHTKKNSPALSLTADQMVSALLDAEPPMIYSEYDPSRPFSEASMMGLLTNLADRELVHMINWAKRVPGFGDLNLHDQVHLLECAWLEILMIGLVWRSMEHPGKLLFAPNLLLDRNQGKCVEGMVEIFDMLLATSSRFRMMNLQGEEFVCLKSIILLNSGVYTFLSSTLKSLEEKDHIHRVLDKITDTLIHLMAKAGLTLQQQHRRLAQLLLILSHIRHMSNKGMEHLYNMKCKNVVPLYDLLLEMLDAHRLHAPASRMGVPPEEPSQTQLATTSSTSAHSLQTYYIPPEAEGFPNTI

[3] = target: T1, Estrogen receptor (Mus musculus); test: Estrogenic activity in uterotrophic assay in mice at 1 ug/day; format: functional
[4] = target: T1, Estrogen receptor (Mus musculus); test: Estrogenic activity in uterotrophic assay in mice at 1000 ug/day; format: functional
[5] = target: T1, Estrogen receptor (Mus musculus); test: Estrogenic activity in uterotrophic assay in mice at 0 ug/day; format: functional
[6] = target: T1, Estrogen receptor (Mus musculus); test: Estrogenic activity in uterotrophic assay in mice at 0.4 ug/day with estrone; format: functional
[7] = target: T1, Estrogen receptor (Mus musculus); test: Estrogenic activity in uterotrophic assay in mice at 10 ug/day; format: functional
[8] = target: T1, Estrogen receptor (Mus musculus); test: Anti-uterotrophic activity in mice at 0 ug/day; format: functional
[9] = target: T1, Estrogen receptor (Mus musculus); test: Anti-uterotrophic activity in mice at 25 ug/day
[10] = target: T1, Estrogen receptor (Mus musculus); test: Inhibition of anti-uterotrophic activity in mice at 25 ug/day (%inhibition=100-(E S,T-EV)x100); format: functional
[11] = target: T1, Estrogen receptor (Mus musculus); test: Inhibition of anti-uterotrophic activity in mice at 5 ug/day (%inhibition=100-(E S,T-EV)x100); format: functional
[12] = target: T1, Estrogen receptor (Mus musculus); test: Estrogenic activity in uterotrophic assay in mice at 50 ug/day; format: functional
[13] = target: T1, Estrogen receptor (Mus musculus); test: Estrogenic activity in uterotrophic assay in mice at 500 ug/day
[14] = target: T1, Estrogen receptor (Mus musculus); test: Anti-uterotrophic activity in mice at 100 ug/day; format: functional
[15] = target: T1, Estrogen receptor (Mus musculus); test: Inhibition of anti-uterotrophic activity in mice at 100 ug/day (%inhibition=100-(E S,T-EV)x100); format: functional
[16] = target: T1, Estrogen receptor (Mus musculus); test: Anti-uterotrophic activity in mice at 250 ug/day; format: functional
[17] = target: T1, Estrogen receptor (Mus musculus); test: Inhibition of anti-uterotrophic activity in mice at 250 ug/day (%inhibition=100-(E S,T-EV)x100); format: functional
[18] = target: T1, Estrogen receptor (Mus musculus); test: Estrogenic activity in uterotrophic assay in mice at 2 ug/day; format: functional
[19] = target: T1, Estrogen receptor (Mus musculus); test: Anti-uterotrophic activity in mice at 5 ug/day; format: functional
[20] = target: T1, Estrogen receptor (Mus musculus); test: Estrogenic activity in uterotrophic assay in mice at 250 ug/day; format: functional

SMILES | relative binding affinity (RBA) [1] | Effect [5] [mg 100g-1] | Effect [6] | Effect [7] [mg 100g-1] | further results
CCOCc1cc(C(CC)C(CC)c2ccc(O)c(COCC)c2)ccc1O (stereo not given) | 0.18 |  |  |  | 
CCC(c1ccc(O)cc1Cl)C(CC)c1ccc(O)cc1Cl (stereo not given) | 2.2 |  |  |  | 
CCC(c1ccc(O)cc1Br)C(CC)c1ccc(O)cc1Br (stereo not given) | 1.8 |  |  |  | 
CCC(c1ccc(O)cc1C)C(CC)c1ccc(O)cc1C (stereo not given) | 8.5 | 16.9 | 43.9 mg 100g-1 | 36.6 | Effect [2]: 38.4 mg 100g-1; Effect [3]: 46.3 mg 100g-1; Effect [4]: 32.6 mg 100g-1
CCC(c1ccc(O)cc1O)C(CC)c1ccc(O)cc1O (stereo not given) | 32 | 16.4 | 51.4 mg 100g-1 | 41.6 | Effect [3]: 53.6 mg 100g-1
CCC(c1ccc(O)c(Cl)c1)C(CC)c1ccc(O)c(Cl)c1 (stereo not given) | 1.6 |  |  |  | 
CCC(c1ccc(O)c(CN(C)C)c1)C(CC)c1ccc(O)c(CN(C)C)c1 (stereo not given) | 0.04 |  |  |  | 
CCC(c1ccc(O)c(COC)c1)C(CC)c1ccc(O)c(COC)c1 (stereo not given) | 0.55 |  |  |  | 
CCC(c1ccc(O)c(C)c1)C(CC)c1ccc(O)c(C)c1 (stereo not given) | 8.1 | 10 | 44.9 mg 100g-1 | 40 | Effect [2]: 33.8 mg 100g-1; Effect [3]: 48.7 mg 100g-1; Effect [4]: 34 mg 100g-1
CC[C@H](c1ccc(O)cc1)[C@@H](CC)c1ccc(O)cc1 | 27 |  |  |  | 
CCC(c1ccc(O)c(F)c1)C(CC)c1ccc(O)c(F)c1 (stereo not given) | 16 | 10 | 44.9 mg 100g-1 | 43.4 | Effect [2]: 40.4 mg 100g-1; Effect [3]: 50.7 mg 100g-1; Effect [4]: 38.8 mg 100g-1
CCC(c1ccc(O)c(N(C)C)c1)C(CC)c1ccc(O)c(N(C)C)c1 (stereo not given) | < 0.01 |  |  |  | 

Now from value to compound, other results behind:

relative binding affinity (RBA) [1] | Effect [5] [mg 100g-1] | Effect [6] | Effect [7] [mg 100g-1] | SMILES | further results
0.71 |  |  |  | CCC(c1ccc(O)c(CO)c1)C(CC)c1ccc(O)c(CO)c1 (stereo not given) | 
< 0.01 |  |  |  | CCC(c1ccc(O)c(C(C)=O)c1)C(CC)c1ccc(O)c(C(C)=O)c1 (stereo not given) | 
0.14 |  |  |  | CCC(c1ccc(O)c([N+](=O)[O-])c1)C(CC)c1ccc(O)c([N+](=O)[O-])c1 (stereo not given) | 
6.5 | 16.9 | 43.9 mg 100g-1 | 39 | CCC(c1ccc(O)cc1F)C(CC)c1ccc(O)cc1F (stereo not given) | Effect [2]: 34.3 mg 100g-1; Effect [3]: 47.6 mg 100g-1; Effect [4]: 30.5 mg 100g-1
0.25 |  |  |  | CCC(c1ccc(O)c(Br)c1)C(CC)c1ccc(O)c(Br)c1 (stereo not given) | 
5.6 | 16.9 | 50.4 mg/100 g | 24.3 | CCC(c1ccc(O)c(N)c1)C(CC)c1ccc(O)c(N)c1 (stereo not given) | Effect [2]: 44.7 mg/100 g; Effect [8]: 50.4 mg 100g-1 and 19.4 mg 100g-1; Effect [3]: 23.3 mg 100g-1; Effect [4]: 45.6 mg 100g-1; Effect [9]: 34.6 mg 100g-1; inhibition [10]: 0%; inhibition [11]: 78%
20 | 15.4 | 54.3 mg 100g-1 | 34.7 | CCC(c1ccc(O)c(O)c1)C(CC)c1ccc(O)c(O)c1 (stereo not given) | Effect [12]: 39.1 mg 100g-1; Effect [13]: 49.8 mg 100g-1; Effect [14]: 39.2 mg 100g-1; inhibition [15]: 13%; Effect [16]: 43.6 mg 100g-1; inhibition [17]: 0%; Effect [18]: 24.6 mg 100g-1; Effect [9]: 37 mg 100g-1; inhibition [10]: 20%; Effect [19]: 24.1 mg 100g-1; inhibition [11]: 59%; Effect [20]: 50.1 mg 100g-1
1.2 |  |  |  | CCc1cc(C(CC)C(CC)c2ccc(O)c(CC)c2)ccc1O (stereo not given) | 
3.7 |  |  |  | CCc1cc(O)ccc1C(CC)C(CC)c1ccc(O)cc1CC (stereo not given) | 
0.17 |  |  |  | CCC(c1ccc(O)c(I)c1)C(CC)c1ccc(O)c(I)c1 (stereo not given) | 
